Columns and labels:
human cyclin B-CDK1 = human cyclin B-CDK1 (Homo sapiens, UniProt P06493); assay: FlashPlate kinase assay, cyclin B-CDK1, Rb substrate; assay type: biochemical; details: recombinant cyclin B-CDK1, Rb phosphorylation, 1 μM ATP
Summary of the method: (§1)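 Recombinant human cyclin–CDK complexes, co-expressed in insect cells, phosphorylated His-tagged Rb (aa 386-928) coated on FlashPlates at 10 μg/ml. Reaction used 1 μM ATP plus 4 nM ^33P-ATP and 20 mM MgCl2 for 30 min at room temperature. % inhibition came from scintillation counts against no-enzyme and no-compound wells, and IC50 was the concentration halving radiolabel incorporation.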

human cyclin E-CDK2 = human cyclin E-CDK2 (Homo sapiens, UniProt P24941); assay: FlashPlate kinase assay, cyclin E-CDK2, Rb substrate; assay type: biochemical; details: recombinant cyclin E-CDK2, Rb phosphorylation, 1 μM ATP
Summary of the method: as §1

human cyclin D1-CDK4 = human cyclin D1-CDK4 (Homo sapiens, UniProt P11802); assay: FlashPlate kinase assay, cyclin D1-CDK4, Rb substrate; assay type: biochemical; details: recombinant cyclin D1-CDK4, Rb phosphorylation, 1 μM ATP
Summary of the method: as §1

[1] = test system: HCT116, a colorectal carcinoma cell line; assay: Tetrazolium dye proliferation assay (MTT assay); assay type: cell-based; details: inhibition of cell proliferation
Summary of the method: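 HCT116 cells in McCoy's 5A + 10% FCS, plated overnight, then dosed in duplicate with serial dilutions (final DMSO 0.3%) and incubated to growth-curve time points. MTT at 1 mg/ml for 2.5-3 h, formazan in ethanol, A570/650. IC50 by linear regression of log concentration vs % inhibition relative to blank and DMSO controls.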

[2] = Homo sapiens, HCT-116, HCT116 cells

human cyclin D1-CDK4, sequence (P11802 whole entry): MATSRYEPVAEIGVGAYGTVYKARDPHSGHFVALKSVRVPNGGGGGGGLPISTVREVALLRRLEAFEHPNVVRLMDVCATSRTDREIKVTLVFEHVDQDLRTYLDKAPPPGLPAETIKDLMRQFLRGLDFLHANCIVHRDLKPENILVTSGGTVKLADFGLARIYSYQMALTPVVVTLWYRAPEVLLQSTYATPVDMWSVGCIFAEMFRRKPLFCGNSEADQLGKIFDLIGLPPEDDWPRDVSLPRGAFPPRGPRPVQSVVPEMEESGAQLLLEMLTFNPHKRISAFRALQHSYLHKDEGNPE
human cyclin D1-CDK4, sequence (P24385 whole entry partner): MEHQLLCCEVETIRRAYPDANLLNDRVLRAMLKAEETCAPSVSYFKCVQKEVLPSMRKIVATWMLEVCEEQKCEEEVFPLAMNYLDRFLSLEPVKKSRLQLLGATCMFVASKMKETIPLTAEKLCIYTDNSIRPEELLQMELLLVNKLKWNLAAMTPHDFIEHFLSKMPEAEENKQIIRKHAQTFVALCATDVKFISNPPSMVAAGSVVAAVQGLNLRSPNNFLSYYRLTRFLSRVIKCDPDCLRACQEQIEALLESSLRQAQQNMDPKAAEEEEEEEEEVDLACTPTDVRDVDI
human cyclin B-CDK1, sequence (P06493 whole entry, the tested form may be a part): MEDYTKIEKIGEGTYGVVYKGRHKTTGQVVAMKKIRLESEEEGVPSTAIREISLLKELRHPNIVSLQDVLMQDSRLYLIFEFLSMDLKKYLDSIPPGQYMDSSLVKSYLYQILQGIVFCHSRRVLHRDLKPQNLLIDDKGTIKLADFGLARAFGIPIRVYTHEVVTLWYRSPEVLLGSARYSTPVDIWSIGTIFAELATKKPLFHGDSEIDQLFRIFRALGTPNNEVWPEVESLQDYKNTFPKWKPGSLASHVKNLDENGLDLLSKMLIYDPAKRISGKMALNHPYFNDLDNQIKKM
human cyclin B-CDK1, sequence (P14635 whole entry partner, the tested form may be a part): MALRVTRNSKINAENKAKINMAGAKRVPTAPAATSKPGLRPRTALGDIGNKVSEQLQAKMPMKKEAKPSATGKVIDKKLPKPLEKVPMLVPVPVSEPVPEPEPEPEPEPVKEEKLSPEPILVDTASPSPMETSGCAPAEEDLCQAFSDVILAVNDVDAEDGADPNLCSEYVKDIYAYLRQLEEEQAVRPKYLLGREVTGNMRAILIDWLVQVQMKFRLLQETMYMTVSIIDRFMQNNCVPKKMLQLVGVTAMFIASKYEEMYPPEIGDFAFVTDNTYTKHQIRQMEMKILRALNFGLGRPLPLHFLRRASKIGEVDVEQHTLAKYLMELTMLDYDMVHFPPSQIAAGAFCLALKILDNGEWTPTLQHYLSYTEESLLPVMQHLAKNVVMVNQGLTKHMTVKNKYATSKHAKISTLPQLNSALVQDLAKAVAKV

Row | melting point | IC50 (human cyclin B-CDK1) [nM] | IC50 (human cyclin E-CDK2) [nM] | IC50 (human cyclin D1-CDK4) [nM] | IC50 [1, 2] [nM] | IC50 ([1]; HCT116 cells) [nM] | SMILES
1 | 130 °C (dec.) | 2490 | 4540 | 87 |  |  | COc1cccc(C(=O)c2sc(Nc3ccc(OCCN(C)C)cc3)nc2N)c1 [Example 144, [4-Amino-2-[4-(2-dimethylaminoethoxy)-phenylamino]-thiazol-5-yl]-(3-methoxy-phenyl)-methanone]
2 | 185 to 190 °C | 600 | 814 | 67 | 4190 |  | COc1cccc(C(=O)c2sc(Nc3ccc(OCCn4ccnc4)cc3)nc2N)c1 [Example 146, [4-Amino-2-[4-(2-imidazol-1-yl-ethoxy)-phenylamino]-thiazol-5-yl]-(3-methoxy-phenyl)-methanone]
3 | 118 to 123 °C | 219 | 900 | 41 |  |  | CCN(CC)CCOc1ccc(Nc2nc(N)c(C(=O)c3cccc(OC)c3)s2)cc1 [Example 145, [4-Amino-2-[4-(2-diethylaminoethoxy)-phenylamino]-thiazol-5-yl]-(3-methoxy-phenyl)-methanone]
4 |  | 784 | 3330 | 48 | 1390 |  | CCNCCOc1ccc(Nc2nc(N)c(C(=O)c3cccc(OC)c3)s2)cc1 [Example 130, [4-Amino-2-[4-(2-ethylamino-ethoxy)-phenylamino]-thiazol-5-yl]-(3-methoxy-phenyl)-methanone]
5 |  | 2070 | 4540 | 51 | 1210 |  | C[C@H](COc1ccc(Nc2nc(N)c(C(=O)c3cccc(C4CC4)c3)s2)cc1)N1CCCC1 [Example 68, (R)-[4-Amino-2-[4-(2-pyrrolidin-1-yl-propoxy)-phenylamino]-thiazol-5-yl]-(3-cyclopropyl-phenyl)-methanone]
6 |  | 240 | 213 | 26 | 491 |  | CCCc1cc(C(=O)c2sc(Nc3ccc(OC[C@@H](C)N(C)C)cc3)nc2N)ccc1O [Example 107, (R)-[4-Amino-2-[4-(2-dimethylamino-propoxy)-phenylamino]-thiazol-5-yl]-(4-hydroxy-3-propyl-phenyl)-methanone; Compound With Acetic Acid]
7 |  | 1810 | 4440 | 33 | 1300 |  | CCOc1cccc(C(=O)c2sc(Nc3ccc(OCCN4CCCC4)cc3)nc2N)c1 [Example 62, [4-Amino-2-[4-(2-pyrrolidin-1-yl-ethoxy)-phenylamino]-thiazol-5-yl]-(3-ethoxy-phenyl)-methanone]
8 |  | 291 | 295 | 26 | 518 |  | CCCc1cc(C(=O)c2sc(Nc3ccc(OCC(C)(C)N(C)C)cc3)nc2N)ccc1O [Example 108, [4-Amino-2-[4-(2-dimethylamino-2-methyl-propoxy)-phenylamino]-thiazol-5-yl]-(4-hydroxy-3-propyl-phenyl)-methanone; Compound With Acetic Acid]
9 |  | 655 | 278 | 46 | 1510 |  | CCc1cccc(C(=O)c2sc(Nc3ccc(OC4CCN(CC)C4)cc3)nc2N)c1 (stereo not shown) [Example 84, [4-Amino-2-[4-(1-ethyl-pyrrolidin-3-yloxy)-phenylamino]-thiazol-5-yl]-(3-ethyl-phenyl)-methanone]
10 |  | 1210 | 1560 | 46 | 954 |  | CCc1cccc(C(=O)c2sc(Nc3ccc(OCC(C)(C)N(C)C)cc3)nc2N)c1 [Example 61, [4-Amino-2-[4-(2-dimethylamino-2-methyl-propoxy)-phenylamino]-thiazol-5-yl]-(3-ethyl-phenyl)-methanone]
11 |  | 668 | 1440 | 39 | 3290 |  | COc1ccc(C(=O)c2sc(Nc3ccc(OC4CCNC4)cc3)nc2N)cc1F (stereo not shown) [Example 96, [4-Amino-2-[4-(pyrrolidin-3-yloxy)-phenylamino]-thiazol-5-yl]-(3-fluoro-4-methoxy-phenyl)-methanone]
12 |  | 3860 | 2110 | 39 | 2360 |  | CN(C)C(C)(C)COc1ccc(Nc2nc(N)c(C(=O)c3cccc(C4CC4)c3)s2)cc1 [Example 71, [4-Amino-2-[4-(2-dimethylamino-2-methyl-propoxy)-phenylamino]-thiazol-5-yl]-(3-cyclopropyl-phenyl)-methanone]
13 |  | 581 | 1010 | 87 | 346 |  | C[C@H](COc1ccc(Nc2nc(N)c(C(=O)c3cccc(F)c3)s2)cc1)N(C)C [Example 40, (R)-[4-Amino-2-[4-(2-dimethylamino-propoxy)-phenylamino]-thiazol-5-yl]-(3-fluoro-phenyl)-methanone]
14 |  | 338 | 800 | 27 |  | 477 | Nc1nc(Nc2ccc(OCCN3CCCC3)cc2)sc1C(=O)c1cccc(F)c1 [Example 36, [4-Amino-2-[4-(2-pyrrolidin-1-yl-ethoxy)-phenylamino]-thiazol-5-yl]-(3-fluoro-phenyl)-methanone]
15 |  | 3230 | 1210 | 27 | 526 |  | CCc1cccc(C(=O)c2sc(Nc3ccc(OCCN(C)C)cc3)nc2N)c1 [Example 52, [4-Amino-2-[4-(2-dimethylamino-ethoxy)-phenylamino]-thiazol-5-yl]-(3-ethyl-phenyl)-methanone]
16 |  | 1130 | 3170 | 43 | 3700 |  | CCc1ccc(C(=O)c2sc(Nc3ccc(OCCN4CCCC4)cc3)nc2N)cc1F [Example 6, [4-Amino-2-[4-(2-pyrrolidin-1-yl-ethoxy)-phenylamino]-thiazol-5-yl]-(4-ethyl-3-fluoro-phenyl)-methanone; Compound With Trifluoroacetic Acid]
17 |  | 1890 | 2320 | 42 | 419 |  | CCc1cccc(C(=O)c2sc(Nc3ccc(OC[C@@H]4CCCN4C)cc3)nc2N)c1 [Example 112, (S)-[4-Amino-2-[4-(1-methyl-pyrrolidin-2-ylmethoxy)-phenylamino]-thiazol-5-yl]-(3-ethyl-phenyl)-methanone]
18 |  | 1980 | 1180 | 37 | 1380 |  | Nc1nc(Nc2ccc(OCCN3CCCC3)cc2)sc1C(=O)c1cccc(C2CC2)c1 [Example 72, [4-Amino-2-[4-(2-pyrrolidin-1-yl-ethoxy)-phenylamino]-thiazol-5-yl]-(3-cyclopropyl-phenyl)-methanone]
19 |  | 1070 | 1690 | 85 | 3240 |  | CN(C)CCOc1ccc(Nc2nc(N)c(C(=O)c3cccc(Br)c3)s2)cc1 [Example 65, [4-Amino-2-[4-(2-dimethylamino-ethoxy)-phenylamino]-thiazol-5-yl]-(3-bromo-phenyl)-methanone]
20 |  | 850 | 5030 | 63 | 2070 |  | Cc1ccc(C(=O)c2sc(Nc3ccc(OC[C@@H]4CCCN4C)cc3)nc2N)cc1F [Example 114, (S)-[4-Amino-2-[4-(1-methyl-pyrrolidin-2-ylmethoxy)-phenylamino]-thiazol-5-yl]-(3-fluoro-4-methyl-phenyl)-methanone]
21 |  | 3900 | 3340 | 62 | 1070 |  | CN1CCC[C@H]1COc1ccc(Nc2nc(N)c(C(=O)c3cccc(C4CC4)c3)s2)cc1 [Example 113, (S)-[4-Amino-2-[4-(1-methyl-pyrrolidin-2-ylmethoxy)-phenylamino]-thiazol-5-yl]-(3-cyclopropyl-phenyl)-methanone]
22 |  | 381 | 1240 | 36 | 1640 |  | CN(C)CCOc1ccc(Nc2nc(N)c(C(=O)c3cccc([N+](=O)[O-])c3)s2)cc1 [Example 54, [4-Amino-2-[4-(2-dimethylamino-ethoxy)-phenylamino]-thiazol-5-yl]-(3-nitro-phenyl)-methanone]
23 |  | 3510 | 3310 | 52 | 2450 |  | CCNCCOc1ccc(Nc2nc(N)c(C(=O)c3ccc(F)c(CC)c3)s2)cc1 [Example 104, [4-Amino-2-[4-(2-ethylamino-ethoxy)-phenylamino]-thiazol-5-yl]-(3-ethyl-4-fluoro-phenyl)-methanone; Compound With Acetic Acid]
24 |  | 1700 | 3360 | 60 | 1040 |  | Cc1cccc(C(=O)c2sc(Nc3ccc(OCCN(C)C)cc3)nc2N)c1 [Example 50, [4-Amino-2-[4-(2-dimethylamino-ethoxy)-phenylamino]-thiazol-5-yl]-m-tolyl-methanone]

From patent publication US6818663B2, “Diaminothiazoles” (Hoffmann-La Roches, priority 2002, dated 2004)
